Among the test systems are DLD-1; MOLT-4; SR; LOX IMVI; OVCAR-3; DMS-273; RPMI-8226; A498; SF-268; A549; M14; COLO 205; CCRF-CEM; SK-MEL-28; OVCAR-8; RXF 393; MDA-N; Hs-578T; NCI/ADR-RES; MDA-MB-231.
What all share (assay): DTP human tumour cell line panel, 48 h

Molecules are shown by their SMILES.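 Protocol summary: plate cells (96-well), add compound at 5 concentrations, incubate 48 h, interpolate endpoints linearly. The concentration for 50% growth inhibition is given as GI50.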 Activity calls are given as the source filed them. Rule as the data show it: active = GI50 up to about 1.1 µM and inactive = higher.

As usually defined, the GI50 is the concentration that inhibits growth by half. For the compound `O=C1C(Cl)=C(Cl)C(=O)N1c1ccc(Cl)c(Cl)c1Cl`, the GI50 was 34.9 µM (inactive) in the assay with DLD-1; 32.6 µM (inactive) with MOLT-4; 26.9 µM (inactive) in the assay with SR; 69 µM (inactive) with LOX IMVI; 41.6 µM (inactive) in the assay with OVCAR-3; > 100 µM (inactive) in the assay with DMS-273. Besides, the GI50 in the assay with RPMI-8226 was 34 µM (inactive); with A498, > 100 µM (inactive); with SF-268, 38 µM (inactive); in the assay with A549, > 100 µM (inactive); in the assay with M14 it was 52.7 µM (inactive); with COLO 205 it was 29.9 µM (inactive). Further, the GI50 in the assay on CCRF-CEM is 21.7 µM (inactive); in the assay with SK-MEL-28 it was > 100 µM (inactive).

Turning to `O=c1/c(=C/c2ccco2)sc2nc3ccccc3n12`, the GI50 in the assay with DLD-1 is > 10 µM (inactive); with MOLT-4, > 10 µM (inactive); in the assay on SR it was > 10 µM (inactive); in the assay with LOX IMVI it was > 10 µM (inactive); with OVCAR-3 it was > 10 µM (inactive); in the assay on DMS-273 it was 86.5 µM (inactive). Besides, the GI50 in the assay on RPMI-8226, with OVCAR-8, in the assay on A498, in the assay with SF-268, in the assay with A549 and in the assay with M14 was > 10 µM (inactive) throughout. The GI50 in the assay on RXF 393 is 63.5 µM (inactive); in the assay with COLO 205 it was > 100 µM (inactive); in the assay on CCRF-CEM, > 10 µM (inactive); in the assay on SK-MEL-28, > 10 µM (inactive).

`CC#CC1/C(=C\C(=O)OC)CCCC1O` (stereo unspecified): the GI50 in the assay on DLD-1, with MOLT-4, in the assay with SR, in the assay on OVCAR-3, in the assay with DMS-273 and with OVCAR-8 was > 100 µM (inactive) each time. The GI50 in the assay with A498, in the assay on SF-268, in the assay on A549, with M14, in the assay on RXF 393 and in the assay on CCRF-CEM was > 100 µM (inactive) in each case. In addition, the GI50 with SK-MEL-28 is > 100 µM (inactive).

For `c1ccc([S+](c2ccccc2)c2ccc(Sc3ccc([S+](c4ccccc4)c4ccccc4)cc3)cc2)cc1`, the GI50 with DLD-1 is 29.2 µM (inactive); in the assay with MOLT-4, 9.73 µM (inactive); in the assay on SR it was 6.44 µM (inactive); in the assay with LOX IMVI, 18.6 µM (inactive); in the assay on OVCAR-3 it was 10.2 µM (inactive); in the assay with DMS-273, 19.5 µM (inactive). Also, the GI50 is 4.88 µM (inactive) in the assay on RPMI-8226; 20.3 µM (inactive) in the assay with OVCAR-8; 44.4 µM (inactive) in the assay on A498; 22.3 µM (inactive) in the assay with SF-268; 9.79 µM (inactive) in the assay with A549; 45.5 µM (inactive) with M14. Moreover, the GI50 was 19.7 µM (inactive) in the assay with RXF 393, 17.4 µM (inactive) in the assay on COLO 205, 19.4 µM (inactive) in the assay with CCRF-CEM and 34.7 µM (inactive) with SK-MEL-28.

For the compound `O=C(NC(=O)c1ccccc1[N+](=O)[O-])Nc1ccc(Oc2ncc(Cl)cn2)c([N+](=O)[O-])c1`, the 50% growth inhibitory concentration (GI50) in the assay with DLD-1 was 0.217 µM (active); with MOLT-4, 0.171 µM (active); in the assay with MDA-N it was 0.0227 µM (active); with SR, 0.0638 µM (active); in the assay with LOX IMVI, 0.895 µM (active); in the assay with OVCAR-3 it was 0.0644 µM (active). Also, the 50% growth inhibitory concentration (GI50) is 0.0738 µM (active) in the assay with DMS-273; 0.187 µM (active) in the assay with RPMI-8226; 1.78 µM (inactive) with OVCAR-8; 0.301 µM (active) with A498; 0.202 µM (active) in the assay on Hs-578T; 0.327 µM (active) in the assay on SF-268. Besides, the concentration for 50% growth inhibition (GI50) is 0.305 µM (active) in the assay on NCI/ADR-RES; 0.385 µM (active) in the assay with A549; 0.175 µM (active) with M14; 0.281 µM (active) in the assay on MDA-MB-231; 0.373 µM (active) in the assay with RXF 393; 0.34 µM (active) in the assay on COLO 205. The 50% growth inhibitory concentration (GI50) in the assay with CCRF-CEM was 0.126 µM (active).

In the case of `Cc1ccc(S(=O)(=O)N/N=C(\c2nc3ccc([N+](=O)[O-])cc3nc2O)C(O)c2ccccc2Cl)cc1` (stereo unspecified), the GI50 in the assay with DLD-1, in the assay on MOLT-4, in the assay on SR, in the assay on LOX IMVI, in the assay on OVCAR-3 and in the assay with DMS-273 was > 100 µM (inactive) each time. Moreover, the GI50 is 61.1 µM (inactive) in the assay on RPMI-8226; > 100 µM (inactive) in the assay on OVCAR-8; > 100 µM (inactive) with A498; > 100 µM (inactive) with SF-268; > 100 µM (inactive) in the assay with A549; 82.8 µM (inactive) in the assay with M14. The GI50 in the assay on COLO 205 is > 100 µM (inactive); in the assay with CCRF-CEM, 17.5 µM (inactive); with SK-MEL-28, > 100 µM (inactive).

Take `CCC1(OC(C)=O)C(=O)OCc2c1cc1n(c2=O)Cc2cc3ccccc3nc2-1` (stereo unspecified): the GI50 with DLD-1 is > 66.4 µM (inactive); with MOLT-4, 0.264 µM (active); with SR, 0.276 µM (active); in the assay with LOX IMVI, 1.01 µM (active); in the assay with OVCAR-3, 10.7 µM (inactive); with DMS-273 it was 0.388 µM (active). For the same compound, the GI50 is 4.2 µM (inactive) with RPMI-8226; 2.45 µM (inactive) in the assay on OVCAR-8; 2.55 µM (inactive) in the assay with A498; 0.528 µM (active) with SF-268; 1.16 µM (inactive) in the assay with A549; 0.948 µM (active) in the assay on M14. In addition, the GI50 in the assay on RXF 393 was 2.64 µM (inactive); in the assay on COLO 205 it was 35.1 µM (inactive); in the assay on CCRF-CEM, 0.163 µM (active); in the assay on SK-MEL-28, 14 µM (inactive).

As to `C=C1CC2C(=O)N(c3ccccc3)C(=O)C2CC1n1[nH]c(=O)n(Cc2ccccc2)c1=O` (stereo unspecified), the GI50 in the assay on DLD-1, in the assay on MOLT-4, with SR, in the assay with LOX IMVI, with OVCAR-3 and with DMS-273 was > 100 µM (inactive) in each case. Further, the GI50 in the assay with RPMI-8226, in the assay with OVCAR-8, in the assay with A498, in the assay with SF-268, in the assay on A549 and in the assay with M14 was > 100 µM (inactive) throughout. The GI50 in the assay on RXF 393, in the assay with COLO 205, in the assay on CCRF-CEM and in the assay on SK-MEL-28 was > 100 µM (inactive) throughout.

With `COC(=O)C(C(=O)C(=O)Nc1ccccc1C)c1nc2ccc([N+](=O)[O-])cc2nc1O` (stereo unspecified), the GI50 in the assay on DLD-1, with MOLT-4, in the assay with SR, in the assay on LOX IMVI, in the assay with OVCAR-3 and in the assay with DMS-273 was > 100 µM (inactive) throughout. The GI50 with RPMI-8226, in the assay on OVCAR-8, in the assay on A498, with SF-268, with A549 and in the assay with M14 was > 100 µM (inactive) each time. The GI50 with RXF 393, in the assay on COLO 205, in the assay with CCRF-CEM and in the assay on SK-MEL-28 was > 100 µM (inactive) throughout.

Take `COc1ccccc1NC(=O)C(=O)C1C(=O)Nc2ccccc2[S+]1[O-]` (stereo unspecified): the GI50 in the assay with DLD-1, in the assay on MOLT-4, in the assay on SR, in the assay with LOX IMVI, with OVCAR-3 and in the assay with DMS-273 was > 100 µM (inactive) throughout. For the same compound, the GI50 in the assay on OVCAR-8, in the assay with A498, in the assay with SF-268, with A549, in the assay on M14 and in the assay with RXF 393 was > 100 µM (inactive) in each case. The GI50 in the assay on COLO 205, with CCRF-CEM and in the assay on SK-MEL-28 was > 100 µM (inactive) in each case.

On to `CC1(C)OC(C[C@]2(C#N)C[C@H](CCl)OC(C)(C)O2)C[C@@H](C[C@]2(C#N)C[C@H](CCl)OC(C)(C)O2)O1` (stereo partly specified), for which the GI50 was > 100 µM (inactive) in the assay on DLD-1; 38.8 µM (inactive) with MOLT-4; 20 µM (inactive) with SR; > 100 µM (inactive) with LOX IMVI; > 100 µM (inactive) in the assay with OVCAR-3; > 100 µM (inactive) with DMS-273. For the same compound, the GI50 with RPMI-8226, in the assay with OVCAR-8, in the assay with A498, in the assay with SF-268, with A549 and in the assay on M14 was > 100 µM (inactive) each time. For the same compound, the GI50 with COLO 205, in the assay on CCRF-CEM and with SK-MEL-28 was > 100 µM (inactive) each time.

Take `CCCCCCc1cc2c(C)c(C)c(=O)oc2cc1OCCCOc1cc2oc(=O)c(C)c(C)c2cc1CCCCCC`: the GI50 with DLD-1, in the assay with MOLT-4, with SR, with LOX IMVI, in the assay with OVCAR-3 and in the assay with DMS-273 was > 100 µM (inactive) each time. Besides, the GI50 in the assay with RPMI-8226, in the assay on OVCAR-8, with A498, in the assay with SF-268, in the assay on A549 and in the assay on M14 was > 100 µM (inactive) each time. For the same compound, the GI50 is 43.4 µM (inactive) in the assay on RXF 393, > 100 µM (inactive) in the assay on CCRF-CEM and > 100 µM (inactive) with SK-MEL-28.

The record behind these values is ChEMBL document CHEMBL1201862, “PubChem BioAssay data set” (2004).
